Values joined by “and” are separate entries in the source; they are usually repeats but may differ in a detail not shown here. Equal entries are not always repeated. Toxic doses and inconclusive results are not listed. Cut-off read from the data, not from the text of the source: active = T/C of 150% or more; inactive = T/C below 125%.
System: L1210 leukemia ip in BDF1 mice, survival T/C
Test: NCI In Vivo Anticancer Drug Screen. Data for tumor model L1210 Leukemia (intraperitoneal) in B6D2F1 (BDF1) mice
Conditions: higher = longer survival
Method in brief: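 Tumor was transplanted into mice, which were then dosed with test compound or vehicle alone. Survival was recorded for each group, and the treated figure was expressed relative to the control figure.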

Measured: T/C

CN(C)c1nc(N(C)C)nc(N(C)C)n1
inactive: endpoint: mean survival time, dose: 2.5 mg/kg/injection, schedule: Q03HX040 (ip), vehicle: acetone 103 % of control | endpoint: mean survival time, dose: 4.8 mg/kg/injection, schedule: Q01DX Z (ip), vehicle: other 94 % of control | endpoint: mean survival time, dose: 5.0 mg/kg/injection, schedule: Q03HX040 (ip), vehicle: acetone 108 % of control | endpoint: mean survival time, dose: 5.0 mg/kg/injection, schedule: Q06HX020 (ip), vehicle: acetone 110 % of control | endpoint: mean survival time, dose: 5.5 mg/kg/injection, schedule: Q01DX009 (ip), vehicle: saline with Tween-80 104 % of control and 116 % of control | endpoint: mean survival time, dose: 8.5 mg/kg/injection, schedule: Q04DX002 (ip), vehicle: saline with Tween-80 93 % of control and 96 % of control | endpoint: mean survival time, dose: 9.4 mg/kg/injection, schedule: Q01DX009 (ip), vehicle: saline with Tween-80 92 % of control | endpoint: mean survival time, dose: 9.4 mg/kg/injection, schedule: Q01DX010 (ip), vehicle: saline 88 % of control and 92 % of control | endpoint: mean survival time, dose: 9.5 mg/kg/injection, schedule: Q01DX Z (ip), vehicle: other 100 % of control | endpoint: mean survival time, dose: 10.0 mg/kg/injection, schedule: Q03HX040 (ip), vehicle: acetone 106 % of control | endpoint: mean survival time, dose: 10.0 mg/kg/injection, schedule: Q06HX020 (ip), vehicle: acetone 110 % of control | endpoint: mean survival time, dose: 10.0 mg/kg/injection, schedule: Q12HX010 (ip), vehicle: acetone 100 % of control | endpoint: mean survival time, dose: 11.0 mg/kg/injection, schedule: Q01DX009 (ip), vehicle: saline with Tween-80 110 % of control and 118 % of control | endpoint: mean survival time, dose: 12.5 mg/kg/injection, schedule: Q01DX009 (ip), vehicle: saline with Tween-80 108 % of control | endpoint: mean survival time, dose: 17.0 mg/kg/injection, schedule: Q04DX002 (ip), vehicle: saline with Tween-80 100 % of control and 105 % of control | endpoint: mean survival time, dose: 18.8 mg/kg/injection, schedule: Q01DX009 (ip), vehicle: saline with Tween-80 103 % of control | endpoint: mean survival time, dose: 18.8 mg/kg/injection, schedule: Q01DX009 (ip), vehicle: saline 95 % of control and 92 % of control | endpoint: mean survival time, dose: 18.8 mg/kg/injection, schedule: Q01DX010 (ip), vehicle: saline 90 % of control and 91 % of control | endpoint: mean survival time, dose: 19.0 mg/kg/injection, schedule: Q01DX Z (ip), vehicle: other 101 % of control | endpoint: mean survival time, dose: 20.0 mg/kg/injection, schedule: Q01DX005 (ip), vehicle: acetone 101 % of control and 103 % of control | endpoint: mean survival time, dose: 20.0 mg/kg/injection, schedule: Q01DX009 (ip), vehicle: Klucel (hydroxypropylcellulose) (HPC) 99 % of control | endpoint: mean survival time, dose: 20.0 mg/kg/injection, schedule: Q01DX009 (ip), vehicle: saline with Tween-80 100 % of control | endpoint: mean survival time, dose: 20.0 mg/kg/injection, schedule: Q03HX040 (ip), vehicle: acetone 107 % of control | endpoint: mean survival time, dose: 20.0 mg/kg/injection, schedule: Q06HX020 (ip), vehicle: acetone 106 % of control | endpoint: mean survival time, dose: 20.0 mg/kg/injection, schedule: Q12HX010 (ip), vehicle: acetone 104 % of control | endpoint: mean survival time, dose: 25.0 mg/kg/injection, schedule: Q01DX009 (ip), vehicle: saline with Tween-80 98 % of control | endpoint: mean survival time, dose: 30.0 mg/kg/injection, schedule: Q03HX040 (ip), vehicle: saline 110 % of control | endpoint: mean survival time, dose: 34.0 mg/kg/injection, schedule: Q04DX002 (ip), vehicle: saline with Tween-80 100 % of control and 101 % of control | endpoint: mean survival time, dose: 37.5 mg/kg/injection, schedule: Q01DX009 (ip), vehicle: saline with Tween-80 98 % of control | endpoint: mean survival time, dose: 37.5 mg/kg/injection, schedule: Q01DX009 (ip), vehicle: saline 94 % of control and 95 % of control | endpoint: mean survival time, dose: 37.5 mg/kg/injection, schedule: Q01DX010 (ip), vehicle: saline 95 % of control and 91 % of control | endpoint: mean survival time, dose: 38.0 mg/kg/injection, schedule: Q01DX Z (ip), vehicle: other 96 % of control | endpoint: mean survival time, dose: 40.0 mg/kg/injection, schedule: Q01DX005 (ip), vehicle: acetone 100 % of control and 110 % of control | endpoint: mean survival time, dose: 40.0 mg/kg/injection, schedule: Q01DX009 (ip), vehicle: Klucel (hydroxypropylcellulose) (HPC) 101 % of control | endpoint: mean survival time, dose: 40.0 mg/kg/injection, schedule: Q01DX009 (ip), vehicle: saline with Tween-80 101 % of control | endpoint: mean survival time, dose: 40.0 mg/kg/injection, schedule: Q06HX020 (ip), vehicle: acetone 118 % of control | endpoint: mean survival time, dose: 40.0 mg/kg/injection, schedule: Q12HX010 (ip), vehicle: acetone 107 % of control | endpoint: mean survival time, dose: 50.0 mg/kg/injection, schedule: Q01DX001 (ip), vehicle: saline with Tween-80 97 % of control | endpoint: mean survival time, dose: 50.0 mg/kg/injection, schedule: Q01DX009 (ip), vehicle: saline with Tween-80 107 % of control | endpoint: mean survival time, dose: 50.0 mg/kg/injection, schedule: Q12HX010 (ip), vehicle: saline 96 % of control | endpoint: mean survival time, dose: 68.0 mg/kg/injection, schedule: Q04DX002 (ip), vehicle: saline with Tween-80 104 % of control and 105 % of control | endpoint: mean survival time, dose: 75.0 mg/kg/injection, schedule: Q01DX009 (ip), vehicle: saline with Tween-80 111 % of control | endpoint: mean survival time, dose: 75.0 mg/kg/injection, schedule: Q01DX009 (ip), vehicle: saline 94 % of control and 91 % of control | endpoint: mean survival time, dose: 75.0 mg/kg/injection, schedule: Q01DX010 (ip), vehicle: saline 98 % of control and 92 % of control | endpoint: mean survival time, dose: 80.0 mg/kg/injection, schedule: Q01DX005 (ip), vehicle: acetone 104 % of control and 106 % of control | endpoint: mean survival time, dose: 80.0 mg/kg/injection, schedule: Q01DX009 (ip), vehicle: Klucel (hydroxypropylcellulose) (HPC) 100 % of control | endpoint: mean survival time, dose: 80.0 mg/kg/injection, schedule: Q01DX009 (ip), vehicle: saline with Tween-80 105 % of control | endpoint: mean survival time, dose: 80.0 mg/kg/injection, schedule: Q12HX010 (ip), vehicle: acetone 115 % of control | endpoint: mean survival time, dose: 85.0 mg/kg/injection, schedule: Q01DX001 (ip), vehicle: other 94 % of control | endpoint: mean survival time, dose: 100.0 mg/kg/injection, schedule: Q01DX001 (ip), vehicle: saline with Tween-80 98 % of control | endpoint: mean survival time, dose: 100.0 mg/kg/injection, schedule: Q01DX009 (ip), vehicle: saline with Tween-80 97 % of control | endpoint: mean survival time, dose: 100.0 mg/kg/injection, schedule: Q12HX010 (ip), vehicle: saline 98 % of control | endpoint: mean survival time, dose: 125.0 mg/kg/injection, schedule: Q01DX001 (ip), vehicle: other 109 % of control | endpoint: mean survival time, dose: 130.0 mg/kg/injection, schedule: Q01DX001 (ip), vehicle: other 101 % of control | endpoint: mean survival time, dose: 136.0 mg/kg/injection, schedule: Q04DX002 (ip), vehicle: saline with Tween-80 96 % of control and 98 % of control | endpoint: mean survival time, dose: 150.0 mg/kg/injection, schedule: Q01DX009 (ip), vehicle: saline with Tween-80 124 % of control | endpoint: mean survival time, dose: 150.0 mg/kg/injection, schedule: Q01DX009 (ip), vehicle: saline 93 % of control and 102 % of control | endpoint: mean survival time, dose: 160.0 mg/kg/injection, schedule: Q01DX009 (ip), vehicle: Klucel (hydroxypropylcellulose) (HPC) 107 % of control and 87 % of control | endpoint: mean survival time, dose: 160.0 mg/kg/injection, schedule: Q01DX009 (ip), vehicle: saline with Tween-80 109 % of control | endpoint: mean survival time, dose: 195.0 mg/kg/injection, schedule: Q01DX001 (ip), vehicle: other 94 % of control | endpoint: mean survival time, dose: 200.0 mg/kg/injection, schedule: Q01DX001 (ip), vehicle: saline with Tween-80 101 % of control | endpoint: mean survival time, dose: 200.0 mg/kg/injection, schedule: Q01DX009 (ip), vehicle: saline with Tween-80 124 % of control | endpoint: mean survival time, dose: 240.0 mg/kg/injection, schedule: Q01DX009 (ip), vehicle: Klucel (hydroxypropylcellulose) (HPC) 86 % of control | endpoint: mean survival time, dose: 250.0 mg/kg/injection, schedule: Q01DX001 (ip), vehicle: other 100 % of control | endpoint: mean survival time, dose: 272.0 mg/kg/injection, schedule: Q04DX002 (ip), vehicle: saline with Tween-80 100 % of control and 105 % of control | endpoint: mean survival time, dose: 400.0 mg/kg/injection, schedule: Q01DX001 (ip), vehicle: saline with Tween-80 98 % of control | endpoint: mean survival time, dose: 500.0 mg/kg/injection, schedule: Q01DX001 (ip), vehicle: other 112 % of control | endpoint: median survival time, dose: 18.8 mg/kg/injection, schedule: Q01DX009 (ip), vehicle: saline 100 % of control and 114 % of control | endpoint: median survival time, dose: 37.5 mg/kg/injection, schedule: Q01DX009 (ip), vehicle: saline 100 % of control and 114 % of control | endpoint: median survival time, dose: 75.0 mg/kg/injection, schedule: Q01DX009 (ip), vehicle: saline 100 % of control and 111 % of control | endpoint: median survival time, dose: 150.0 mg/kg/injection, schedule: Q01DX009 (ip), vehicle: saline 111 % of control and 121 % of control

Reference: PubChem BioAssay AID248 (DTP/NCI, 2004)
